Assay: Dissolution / microcapsule releasing test in phosphate buffer pH 7.2, 100 rpm, UV spectrophotometer
Type: physicochemical
Procedure: The test was carried out in phosphate buffer at pH 7.2 (obtained by dissolving 6.8 g of KH2 PO4 and 1.4 g of NaOH in 1 litre of demineralised water) at 100 rpm for the microcapsule dissolution test and 50 rpm for the tablet dissolution test according to the method described in European Pharmacopoeia, Ed. 4.4 of the April 2003. • dissolution in phosphate buffer at pH 7.2 (obtained by dissolving 6.8 g of KH2PO4 and 1.4 g of NaOH in 1 litre of demineralised water) at 100 rpm; the average of 5 tests has given the following results: • 30.1% after 5 minutes, 58.6% after 10 minutes, 71.0% after 15 minutes, 78.8% after 20 minutes, 86.9% after 30 minutes, • palatability: the palatability test was carried out as indicated above administering 200 mg of Ibuprofen BP 80 to each individual. […] The microcapsules obtained in Examples 1 to 3 (MC1, MC2 and MC3) were subjected to the releasing test in phosphate buffer by means of a UV spectrophotometer. In order to assist comparison the results obtained on AI as such in the same test are shown in the bottom line (see previous Experimental Part).

AI released, 0 min (0 min): 0%
AI released, 5 min: 30.1%
AI released, 5 min (listed as AI): 30.10%
AI released, 10 min: 58.6%
AI released, 10 min (listed as AI): 58.60%
AI released, 15 min: 71.0%
AI released, 15 min (listed as AI): 71.00%
AI released, 20 min: 78.8%
AI released, 20 min (listed as AI): 78.80%
AI released, 30 min: 86.9%
AI released, 30 min (listed as AI): 86.90%
SMILES: CC(C)Cc1ccc(C(C)C(=O)O)cc1 (centres unmarked) [Ibuprofen BP 80, Ibuprofen]

Source: patent publication US20090074867A1, “ORALLY DISPERSIBLE PHARMACEUTICAL COMPOSITION AND PROCESS FOR THE PREPARATION THEREOF” (priority 2004, published 2009)
